Experimental data: patent US20260062387A1, “SALT-INDUCIBLE KINASE INHIBITOR COMPOUND AND PHARMACEUTICAL COMPOSITION INCLUDING THE SAME” (MITSUBISHI TANABE PHARMA CORPORATION, priority 2023, published 2026)

What was measured:
Type in all cases: biochemical
GST-tagged SIK2 = GST-tagged SIK2 (Homo sapiens (Human), UniProt Q9H0K1); assay: SIK2 inhibition test (ADP-Glo Max Assay); conditions: enzyme 3 nM, AMARA Peptide 200 μM, ATP 1 mM, 2 hours room temperature
Description: (§1) The compounds described in Examples above were used in the SIK1, SIK2, and SIK3 inhibition test.
(§2) The inhibitory activity of the compound for SIK1, SIK2, and SIK3 enzymes was assayed by measuring the amount of ADP, an enzyme reaction product, with ADP-Glo™ Max Assay (Promega). Enzymes, specifically, GST-tagged SIK1 (Carna Biosciences, Inc.), GST-tagged SIK2 (Carna Biosciences, Inc.), and GST-tagged SIK3 (SignalChem) were prepared in a reaction buffer (15 mM tris-hydrochloric acid buffer (pH 7.5), 0.001% Triton X-100, 0.01% BSA) so that the final concentration would be 20 nM, 3 nM, and 100 nM. Enzyme solutions were thus formed. In a reaction buffer, AMARA Peptide (SignalChem) as a substrate with a final concentration of 200 μM (SIK1, SIK2) or 100 μM (SIK3), ATP (Promega) with a final concentration of 1 mM, and magnesium chloride with a final concentration of 5 mM were prepared. Substrate solutions were thus formed. The enzyme solution, the substrate solution, and a DMSO solution of a concentration of the test compound were mixed together and reacted at room temperature for 2 hours. After the reaction, ADP-Glo™ Reagent (Promega) was added, and the reaction was performed at room temperature for 30 minutes. Subsequently, ADP-Glo™ Max Detection Reagent (Promega) was added, and the reaction was performed at room temperature for 30 minutes. The emission by the luciferase reaction was measured with PHERAstar FSX (BMG LABTECH).
(§3) The inhibitory ratio (%) was calculated by: % Inhibition={1−(intensity of sample−intensity of blank (no enzyme solution added))/(intensity of control (DMSO alone)−intensity of blank)}×100. The inhibitory concentration IC50 was calculated based on 16 data values obtained in the concentration response test.

GST-tagged SIK1 = GST-tagged SIK1 (Homo sapiens (Human), UniProt P57059); assay: SIK1 inhibition test (ADP-Glo Max Assay); conditions: enzyme 20 nM, AMARA Peptide 200 μM, ATP 1 mM, 2 hours room temperature
Description: as §1, §2, §3

GST-tagged SIK3 = GST-tagged SIK3 (Homo sapiens (Human), UniProt Q9Y2K2); assay: SIK3 inhibition test (ADP-Glo Max Assay); conditions: enzyme 100 nM, AMARA Peptide 100 μM, ATP 1 mM, 2 hours room temperature
Description: as §1, §2, §3

Sequence of GST-tagged SIK2 (Q9H0K1 whole entry): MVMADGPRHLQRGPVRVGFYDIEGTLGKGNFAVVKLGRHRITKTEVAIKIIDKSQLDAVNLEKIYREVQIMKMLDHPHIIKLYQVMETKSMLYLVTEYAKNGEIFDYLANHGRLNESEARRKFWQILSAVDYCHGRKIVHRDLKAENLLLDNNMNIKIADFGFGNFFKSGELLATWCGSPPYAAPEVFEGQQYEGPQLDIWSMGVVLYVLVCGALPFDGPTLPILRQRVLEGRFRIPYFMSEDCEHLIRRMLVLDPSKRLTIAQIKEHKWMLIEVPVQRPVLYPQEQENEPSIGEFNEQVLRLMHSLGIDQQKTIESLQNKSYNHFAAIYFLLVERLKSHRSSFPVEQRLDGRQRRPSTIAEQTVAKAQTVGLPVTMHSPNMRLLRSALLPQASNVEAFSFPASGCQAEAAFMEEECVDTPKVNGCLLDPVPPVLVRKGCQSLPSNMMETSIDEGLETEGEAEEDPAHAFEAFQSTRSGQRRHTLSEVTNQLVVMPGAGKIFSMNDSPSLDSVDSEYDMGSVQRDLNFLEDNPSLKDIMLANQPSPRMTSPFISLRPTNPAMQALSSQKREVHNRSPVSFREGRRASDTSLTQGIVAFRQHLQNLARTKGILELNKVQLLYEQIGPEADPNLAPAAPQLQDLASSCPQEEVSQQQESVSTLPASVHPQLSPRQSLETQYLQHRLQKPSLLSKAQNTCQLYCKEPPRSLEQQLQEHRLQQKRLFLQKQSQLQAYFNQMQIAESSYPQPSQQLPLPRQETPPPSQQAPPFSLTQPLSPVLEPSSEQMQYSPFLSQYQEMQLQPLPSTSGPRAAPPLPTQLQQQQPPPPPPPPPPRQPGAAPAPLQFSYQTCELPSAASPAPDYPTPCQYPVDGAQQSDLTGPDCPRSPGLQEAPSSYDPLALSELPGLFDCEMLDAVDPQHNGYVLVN
Sequence of GST-tagged SIK3 (Q9Y2K2 whole entry): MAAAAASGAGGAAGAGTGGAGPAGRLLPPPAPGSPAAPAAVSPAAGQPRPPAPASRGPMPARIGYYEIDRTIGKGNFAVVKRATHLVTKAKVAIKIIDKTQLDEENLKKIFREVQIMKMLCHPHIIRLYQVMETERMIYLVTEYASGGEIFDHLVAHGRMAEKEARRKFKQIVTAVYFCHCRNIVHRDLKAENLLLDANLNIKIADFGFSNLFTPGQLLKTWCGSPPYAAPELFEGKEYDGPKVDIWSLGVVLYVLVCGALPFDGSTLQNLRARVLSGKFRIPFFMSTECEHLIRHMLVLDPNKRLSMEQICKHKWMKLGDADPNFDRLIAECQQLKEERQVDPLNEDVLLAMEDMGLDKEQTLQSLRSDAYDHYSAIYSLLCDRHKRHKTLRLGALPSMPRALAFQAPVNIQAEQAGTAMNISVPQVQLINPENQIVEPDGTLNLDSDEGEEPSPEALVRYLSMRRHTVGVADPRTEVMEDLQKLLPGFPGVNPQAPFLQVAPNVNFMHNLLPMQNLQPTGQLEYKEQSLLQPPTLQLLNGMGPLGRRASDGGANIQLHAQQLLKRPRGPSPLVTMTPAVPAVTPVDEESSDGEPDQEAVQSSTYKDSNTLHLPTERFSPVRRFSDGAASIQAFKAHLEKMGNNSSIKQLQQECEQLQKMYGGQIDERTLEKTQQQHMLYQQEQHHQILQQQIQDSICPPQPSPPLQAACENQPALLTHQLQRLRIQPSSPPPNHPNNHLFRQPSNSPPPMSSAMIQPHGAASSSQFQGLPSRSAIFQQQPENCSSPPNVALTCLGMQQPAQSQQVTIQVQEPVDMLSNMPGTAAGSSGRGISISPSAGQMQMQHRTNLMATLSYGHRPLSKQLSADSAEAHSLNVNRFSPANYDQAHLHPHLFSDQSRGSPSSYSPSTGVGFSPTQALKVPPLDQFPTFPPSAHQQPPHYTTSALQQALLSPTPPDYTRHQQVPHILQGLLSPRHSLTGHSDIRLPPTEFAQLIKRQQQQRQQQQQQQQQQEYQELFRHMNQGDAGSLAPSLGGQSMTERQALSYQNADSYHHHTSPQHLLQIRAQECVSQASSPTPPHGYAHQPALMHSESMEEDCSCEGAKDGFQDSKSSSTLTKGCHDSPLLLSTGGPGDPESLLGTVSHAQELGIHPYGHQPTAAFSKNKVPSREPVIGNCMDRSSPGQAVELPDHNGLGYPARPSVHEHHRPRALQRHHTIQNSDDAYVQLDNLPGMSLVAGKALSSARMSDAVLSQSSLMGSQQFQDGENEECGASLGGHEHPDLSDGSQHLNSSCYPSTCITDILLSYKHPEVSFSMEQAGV
Sequence of GST-tagged SIK1 (P57059 whole entry): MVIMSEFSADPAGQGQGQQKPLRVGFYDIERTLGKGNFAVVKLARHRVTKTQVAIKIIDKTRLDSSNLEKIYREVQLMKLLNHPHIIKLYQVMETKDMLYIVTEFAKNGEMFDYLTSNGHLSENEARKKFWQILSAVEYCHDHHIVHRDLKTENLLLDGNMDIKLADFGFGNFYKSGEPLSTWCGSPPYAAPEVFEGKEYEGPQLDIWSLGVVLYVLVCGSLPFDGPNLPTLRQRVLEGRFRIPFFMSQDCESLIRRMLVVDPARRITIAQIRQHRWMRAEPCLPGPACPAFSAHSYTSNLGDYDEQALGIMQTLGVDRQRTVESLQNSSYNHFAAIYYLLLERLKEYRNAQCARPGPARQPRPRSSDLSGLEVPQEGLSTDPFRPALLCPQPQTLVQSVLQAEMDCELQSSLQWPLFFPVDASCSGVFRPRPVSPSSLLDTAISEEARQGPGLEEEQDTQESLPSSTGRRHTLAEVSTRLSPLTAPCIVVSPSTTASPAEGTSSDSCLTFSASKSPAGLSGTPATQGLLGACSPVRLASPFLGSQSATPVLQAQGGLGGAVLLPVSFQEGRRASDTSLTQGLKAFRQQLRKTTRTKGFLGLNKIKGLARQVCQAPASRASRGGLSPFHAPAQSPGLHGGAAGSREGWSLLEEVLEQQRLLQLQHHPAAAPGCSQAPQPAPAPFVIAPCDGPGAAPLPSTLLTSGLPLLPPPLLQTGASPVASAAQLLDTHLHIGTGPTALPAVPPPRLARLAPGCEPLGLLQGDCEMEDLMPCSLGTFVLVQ

Row | Compound | IC50 (GST-tagged SIK2) [nM] | IC50 (GST-tagged SIK1) [nM] | IC50 (GST-tagged SIK3) [nM]
1 | COc1cc(-c2cnn(C)c2)cc2nn(C)c(-c3cc(OC(F)F)c4c(c3)C(C)CNC4=O)c12 (stereo not drawn) [Example 161, 8-(difluoromethoxy)-6-[4-methoxy-2-methyl-6-(1-methylpyrazol-4-yl)indazol-3-yl]-4-methyl-3,4-dihydro-2H-isoquinolin-1-one] | 1.3 | 5.6 | 10
2 | COc1cc(-c2c3c(C#N)cc(-c4cnn(C)c4)cc3nn2C)cc(OC(F)F)c1C(N)=O [Example 73, 4-[4-cyano-2-methyl-6-(1-methylpyrazol-4-yl)indazol-3-yl]-2-(difluoromethoxy)-6-methoxybenzamide] | 3.8 | 17.4 | 6.5
3 | COc1cc(-c2c3c(C#N)cc(-c4cnn(C(C)C)c4)cc3nn2C)cc(OC(F)F)c1C(N)=O [Example 132, 4-[4-cyano-2-methyl-6-(1-propan-2-ylpyrazol-4-yl)indazol-3-yl]-2-(difluoromethoxy)-6-methoxybenzamide] | 4 | 16.1 | 5.8
4 | COc1cc(-c2c3c(OCC4COC4)cc(-c4cnn(C)c4)cc3nn2C)cc(OC(F)F)c1C(=O)N1CC(O)(C(F)(F)F)C1 [Example 26, [2-(difluoromethoxy)-6-methoxy-4-[2-methyl-6-(1-methylpyrazol-4-yl)-4-(oxetan-3-ylmethoxy)indazol-3-yl]phenyl]-[3-hydroxy-3-(trifluoromethyl)azetidin-1-yl]methanone] | 4.3 | 7.1 | 11.2
5 | COc1cc(-c2c3c(C#N)cc(-c4cnn(CCC(C)(C)O)c4)cc3nn2C)cc(OC(F)F)c1C(N)=O [Example 142] | 1.9 | 16.2 | 2.7
6 | COc1cc(-c2c3c(C#N)cc(-c4cnn(CC(C)(C)O)c4)cc3nn2C)cc(OC(F)F)c1C(=O)NC[C@@H]1CC1(F)F (single isomer, unassigned) [Example 86] | 13.1 | 13.7 | 19.4
7 | Cn1cc(-c2cc(C#N)c3c(-c4cc(OC(F)F)c5c(c4)C(C)(C)CNC5=O)n(C)nc3c2)cn1 [Example 162, 3-[8-(difluoromethoxy)-4,4-dimethyl-1-oxo-2,3-dihydroisoquinolin-6-yl]-2-methyl-6-(1-methylpyrazol-4-yl)indazol-4-carbonitrile] | 2.5 | 8.1 | 3.2
8 | COc1cc(-c2c3c(C(F)F)cc(-c4cnn(C)c4)cc3nn2C)cc(OC(F)F)c1C(=O)N1CC(O)(C(F)F)C1 [Example 38, [2-(difluoromethoxy)-4-[4-(difluoromethyl)-2-methyl-6-(1-methylpyrazol-4-yl)indazol-3-yl]-6-methoxyphenyl]-[3-(difluoromethyl)-3-hydroxyazetidin-1-yl]methanone] | 13.8 | 16.8 | 10.1
9 | COc1cc(-c2c3c(C#N)cc(-c4cnn(CC5(O)CCC5)c4)cc3nn2C)cc(OC(F)F)c1C(=O)N[C@@H]1CC1(F)F [Example 110, 4-[4-cyano-6-[1-[(1-hydroxycyclobutyl)methyl]pyrazol-4-yl]-2-methylindazol-3-yl]-N-[(1R)-2,2-difluorocyclopropyl]-2-(difluoromethoxy)-6-methoxybenzamide] | 3.2 | 6.5 | 1.7
10 | COc1cc(-c2c3c(C#N)cc(-c4cnn(CCC5(O)CCC5)c4)cc3nn2C)cc(OC(F)F)c1C(N)=O [Example 137, 4-[4-cyano-6-[1-[2-(1-hydroxycyclobutyl)ethyl]pyrazol-4-yl]-2-methylindazol-3-yl]-2-(difluoromethoxy)-6-methoxybenzamide] | 5.8 | 11.6 | 4.7
11 | COc1cc(-c2c3c(C#N)cc(-c4cnn(C)c4)cc3nn2C)cc(OC(F)F)c1C(=O)N1CC(C)(C(F)F)C1 [Example 8, 3-[3-(difluoromethoxy)-4-[3-(difluoromethyl)-3-methylazetidin-1-carbonyl]-5-methoxyphenyl]-2-methyl-6-(1-methylpyrazol-4-yl)indazole-4-carbonitrile] | 9.7 | 7.2 | 5.8
12 | COCCn1cc(-c2cc(C#N)c3c(-c4cc(OC)c5c(c4)C(C)(C)CNC5=O)n(C)nc3c2)cn1 [Example 143, 3-(8-methoxy-4,4-dimethyl-1-oxo-2,3-dihydroisoquinolin-6-yl)-6-[1-(2-methoxyethyl)pyrazol-4-yl]-2-methylindazole-4-carbonitrile] | 2.2 | 10.5 | 8.6

Further compounds by falling IC50 (GST-tagged SIK2), results first:

Row | IC50 (GST-tagged SIK2) [nM] | IC50 (GST-tagged SIK1) [nM] | IC50 (GST-tagged SIK3) [nM] | Compound
13 | 15.6 | 19.7 | 2.7 | CCCn1cc(-c2cc(C(F)F)c3c(-c4cc(OC)c(C(N)=O)c(OC(F)F)c4)n(C)nc3c2)cn1 [Example 113, 2-(difluoromethoxy)-4-[4-(difluoromethyl)-2-methyl-6-(1-propylpyrazol-4-yl)indazol-3-yl]-6-methoxybenzamide]
14 | 7.6 | 1.3 | 5.3 | COc1cc(-c2c3c(OCC(F)F)cc(-c4cnn(C)c4)cc3nn2C)cc(OC(F)F)c1C(=O)N1CC(O)(C(F)(F)F)C1 [Example 41, [4-[4-(2,2-difluoroethoxy)-2-methyl-6-(1-methylpyrazol-4-yl)indazol-3-yl]-2-(difluoromethoxy)-6-methoxyphenyl]-[3-hydroxy-3-(trifluoromethyl)azetidin-1-yl]methanone]
15 | 5.8 | 15 | 12 | COc1cc(-c2c3c(C#N)cc(-c4cnn(CC(=O)N5CCC(F)(F)C5)c4)cc3nn2C)cc(OC(F)F)c1C(=O)NCC1(F)CC1 [Example 101, 4-[4-cyano-6-[1-[2-(3,3-difluoropyrrolidin-1-yl)-2-oxoethyl]pyrazol-4-yl]-2-methylindazol-3-yl]-2-(difluoromethoxy)-N-[(1-fluorocyclopropyl)methyl]-6-methoxybenzamide]
16 | 5.2 | 11.8 | 10.1 | COc1cc(-c2c3c(C#N)cc(-c4cnn(C)c4)cc3nn2C)cc2c1C(=O)NCC2C (stereo not drawn) [Example 77, 3-(8-methoxy-4-methyl-1-oxo-3,4-dihydro-2H-isoquinolin-6-yl)-2-methyl-6-(1-methylpyrazol-4-yl)indazol-4-carbonitrile]
17 | 5 | 10.8 | 7.6 | COc1cc(-c2c3c(OC(F)F)cc(-c4cnn(C)c4)cc3nn2C)cc(OC(F)F)c1C(=O)N[C@@H]1C[C@@H]1F [Example 5, 2-(difluoromethoxy)-4-[4-(difluoromethoxy)-2-methyl-6-(1-methylpyrazol-4-yl)indazol-3-yl]-N-[(1R,2S)-2-fluorocyclopropyl]-6-methoxybenzamide]
18 | 2.5 | 6.4 | 2 | C[C@H]1CNC(=O)c2c(OC(F)F)cc(-c3c4c(C#N)cc(-c5cnn(C)c5)cc4nn3C)cc21 (single isomer, unassigned) [Example 182]
19 | 2 | 5.7 | 6.1 | CCn1cc(-c2cc(OC)c3c(-c4cc(OC(F)F)c5c(c4)[C@@H](C)CNC5=O)n(C)nc3c2)cn1 (single isomer, unassigned) [Example 179]
20 | 2 | 17.6 | 2.7 | CCn1cc(-c2cc(C#N)c3c(-c4cc(OC)c(C(N)=O)c(OC(F)F)c4)n(C)nc3c2)cn1 [Example 141, 4-[4-cyano-6-(1-ethylpyrazol-4-yl)-2-methylindazol-3-yl]-2-(difluoromethoxy)-6-methoxybenzamide]
21 | 1.9 | 8.1 | 3.4 | COc1cc(-c2c3c(C#N)cc(-c4cnn(CC(C)C)c4)cc3nn2C)cc2c1C(=O)NC[C@@H]2C (single isomer, unassigned) [Example 169]
22 | 1.8 | 6.4 | 4.8 | COc1cc(-c2c3c(OCc4cncc(C#N)c4)cc(-c4cnn(C)c4)cc3nn2C)cc(OC(F)F)c1C(=O)N1CC(O)(C(F)(F)F)C1 [Example 104, 5-[[3-[3-(difluoromethoxy)-4-[3-hydroxy-3-(trifluoromethyl)azetidin-1-carbonyl]-5-methoxyphenyl]-2-methyl-6-(1-methylpyrazol-4-yl)indazol-4-yl]oxymethyl]pyridine-3-carbonitrile]
23 | 1.5 | 7.4 | 5.5 | CCn1cc(-c2cc(OC(F)F)c3c(-c4cc(OC)c(C(N)=O)c(OC(F)F)c4)n(C)nc3c2)cn1 [Example 155, 2-(difluoromethoxy)-4-[4-(difluoromethoxy)-6-(1-ethylpyrazol-4-yl)-2-methylindazol-3-yl]-6-methoxybenzamide]
